In patent publication US10196357B2, “Biaryl compositions and methods for modulating a kinase cascade” (Athenex, Inc., priority 2007, dated 2019):

Assays:
[1] = test system: LN-18; assay: brain tumor cell growth inhibition, LN-18; type: cell-based, Human; conditions: LN-18, glioblastoma; glioma; read-out: IC50 (title: GI50)
[2] = test system: U87; assay: brain tumor cell growth inhibition, U87; type: cell-based, Human; conditions: U87, glioblastoma; astrocytoma; read-out: IC50 (title: GI50)
[3] = test system: SK-N-FI; assay: brain tumor cell growth inhibition, SK-N-FI; type: cell-based, Human; conditions: neuroblastoma, read-out: IC50 (title: GI50)
[4] = test system: Src-Y416 autophosphorylation; assay: intracellular phosphorylation, Src autophosphorylation; type: cell-based; conditions: HT29 and c-Src527F/NIH-3T3 cells, 0.2×-25× GI50
Description: (§1) HT29 (colon cancer) and c-Src527F/NIH-3T3 (Src transformed) cell lines were treated with KX2-391 or with AstraZeneca's ATP competitive Src inhibitor AZ28. AZ28 serves as a positive comparator to show what a validated Src inhibitor should do in these assays. After treatment with compound, cells were lysed, subjected to PAGE and probed with a battery of antibodies. […] In addition, off-target protein phosphorylation was also investigated. Further, induction of apoptosis was evaluated via Caspase 3 cleavage. Multiple doses of each compound were tested because the trends in response to increasing drug concentration are the most reliable indicator of activity.
(§2) The same range of multiples of the GI50 for AZ28 in these two cell lines was run as a comparison.

[5] = test system: EGFR tyrosine kinase autophosphorylation; assay: EGFR tyrosine kinase autophosphorylation in cells; type: cell-based; conditions: tumor cells, FIG. 9, EGF Y845
Description: as §1, §2
This site is not a direct Src phosphorylation site.

[6] = test system: MOLT-4 (Adult lymphoblastic leukemia); assay: growth inhibition, MOLT-4; type: cell-based, Human
[7] = test system: Bcr/Abl &245; assay: whole cell phosphorylation, Bcr/Abl; type: cell-based; conditions: whole cells
[8] = test system: CCRF-HSB-2 (Adult lymphoblastic leukemia); assay: growth inhibition, CCRF-HSB-2; type: cell-based, Human; conditions: read-out: GI50
[9] = test system: SK-N-MC; assay: brain tumor cell growth inhibition, SK-N-MC; type: cell-based, Human; conditions: neuroepithelioma, read-out: IC50 (title: GI50)
[10] = test system: PC3-MM2 prostate cancer cells; assay: orthotopic prostate model for in vivo metastases; design: species or system Nu/Nu mice
Description: Nu/Nu mice (8-12 weeks of age) were injected with PC3-MM2 prostate cancer cells into the prostate as described previously in Pettaway et al., Clin Cancer Res 1996, 2:1627-1636, hereby incorporated herein by reference in its entirety. […] All mice were sacrificed by cervical dislocation on about day 42. Tumor volume (measured by caliper), weight, and incidence of regional (celiac or para-aortal) lymph node metastases were recorded.

[11] = test system: H226; assay: MTT growth inhibition, Dasatinib-resistant H226; type: cell-based, human; conditions: H226, 8.0×10^3 cells/well, […] FBS, 78 Hr
Description: Cell proliferation/growth inhibition was assessed using MTT colorimetric assay.
On Day 3, 10 μL MTT (5 mg/mL) was added to each well. Cells were then incubated in the presence of MTT for 4 hours at 37° C., appropriate CO2 conditions. After this incubation period, 90 μL 10% SDS(+HCl) was added to each well to lyse cells and solubilize formazan. Cells were then incubated overnight at 37° C., appropriate CO2 conditions.
The OD570 was measured using microplate reader. Growth inhibition curves and EC50/IC50 was determined using GraphPad Prism 4 statistical software.

[12] = test system: 769-P; assay: renal tumor cell growth inhibition, 769-P; type: cell-based, Human; conditions: renal cell adenocarcinoma
Description: (§3) These GI50s were determined using standard tumor growth inhibition assays, similar to those described in detail in this Example 7.

[13] = test system: SW1088; assay: brain tumor cell growth inhibition, SW1088; type: cell-based, Human; conditions: SW1088, astrocytoma; read-out: IC50 (title: GI50)
[14] = test system: Ba/F3 + BCR-Abl E225K mutant; assay: MTT growth inhibition, Ba/F3 + BCR-Abl E225K; type: cell-based; conditions: 96 hrs
Description: (§4) Cultures of Ba/F3 cells were also transfected to express wild-type (WT) Bcr-Abl, E255K mutation of Bcr-Abl, or T315I mutation of Bcr-Abl and cultured in 96-well plates in complete media without IL-3. The Ba/F3 cell line is rendered Gleevec resistant when the mutation in the Bcr/Abl tyrosine kinase […] is present. […] All assays are in triplicate.

[15] = test system: Lck Y405; assay: whole cell phosphorylation, Lck; type: cell-based; conditions: whole cells
[16] = test system: ZAP70 Y319; assay: whole cell phosphorylation, ZAP70; type: cell-based; conditions: whole cells
[17] = test system: Ba/F3 + BCR-Abl T315I mutant; assay: MTT growth inhibition, Ba/F3 + BCR-Abl T315I; type: cell-based; conditions: 96 hrs
Description: as §4

[18] = test system: Jurkat (Adult T cell leukemia); assay: growth inhibition, Jurkat; type: cell-based, Human
[19] = test system: 786-O; assay: renal tumor cell growth inhibition, 786-O; type: cell-based, Human; conditions: renal cell adenocarcinoma
Description: as §3

[20] = molecular target: Fyn(h) (Homo sapiens, UniProt P06241); assay: isolated kinase activity, Fyn; type: biochemical; conditions: compound @ 10 μM
Fyn(h), sequence (P06241 whole entry): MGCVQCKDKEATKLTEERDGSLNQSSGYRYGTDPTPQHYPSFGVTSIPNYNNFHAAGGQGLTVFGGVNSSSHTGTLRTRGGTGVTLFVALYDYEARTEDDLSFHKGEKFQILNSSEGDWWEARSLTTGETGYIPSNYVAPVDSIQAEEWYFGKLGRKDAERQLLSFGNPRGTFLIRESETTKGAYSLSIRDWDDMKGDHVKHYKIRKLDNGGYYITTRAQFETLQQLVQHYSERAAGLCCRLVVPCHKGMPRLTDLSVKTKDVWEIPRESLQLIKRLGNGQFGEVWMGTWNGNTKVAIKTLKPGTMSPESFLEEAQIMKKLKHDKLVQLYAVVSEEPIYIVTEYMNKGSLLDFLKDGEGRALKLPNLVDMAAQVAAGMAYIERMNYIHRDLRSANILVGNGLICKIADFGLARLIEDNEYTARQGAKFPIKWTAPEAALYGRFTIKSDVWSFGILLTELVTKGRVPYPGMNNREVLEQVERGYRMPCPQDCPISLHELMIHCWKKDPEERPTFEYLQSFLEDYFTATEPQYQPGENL
Description: (§5) Table 8 illustrates percent activity of isolated kinases in the presence of the AstraZeneca ATP-competitive inhibitor (KX2-328, AZ-28) or KX2-391 relative to control (untreated) isolated kinases.

[21] = molecular target: EGFR(h) (Homo sapiens, UniProt P00533); assay: isolated kinase activity, EGFR; type: biochemical; conditions: compound @ 10 μM
EGFR(h), sequence (P00533 25-1210): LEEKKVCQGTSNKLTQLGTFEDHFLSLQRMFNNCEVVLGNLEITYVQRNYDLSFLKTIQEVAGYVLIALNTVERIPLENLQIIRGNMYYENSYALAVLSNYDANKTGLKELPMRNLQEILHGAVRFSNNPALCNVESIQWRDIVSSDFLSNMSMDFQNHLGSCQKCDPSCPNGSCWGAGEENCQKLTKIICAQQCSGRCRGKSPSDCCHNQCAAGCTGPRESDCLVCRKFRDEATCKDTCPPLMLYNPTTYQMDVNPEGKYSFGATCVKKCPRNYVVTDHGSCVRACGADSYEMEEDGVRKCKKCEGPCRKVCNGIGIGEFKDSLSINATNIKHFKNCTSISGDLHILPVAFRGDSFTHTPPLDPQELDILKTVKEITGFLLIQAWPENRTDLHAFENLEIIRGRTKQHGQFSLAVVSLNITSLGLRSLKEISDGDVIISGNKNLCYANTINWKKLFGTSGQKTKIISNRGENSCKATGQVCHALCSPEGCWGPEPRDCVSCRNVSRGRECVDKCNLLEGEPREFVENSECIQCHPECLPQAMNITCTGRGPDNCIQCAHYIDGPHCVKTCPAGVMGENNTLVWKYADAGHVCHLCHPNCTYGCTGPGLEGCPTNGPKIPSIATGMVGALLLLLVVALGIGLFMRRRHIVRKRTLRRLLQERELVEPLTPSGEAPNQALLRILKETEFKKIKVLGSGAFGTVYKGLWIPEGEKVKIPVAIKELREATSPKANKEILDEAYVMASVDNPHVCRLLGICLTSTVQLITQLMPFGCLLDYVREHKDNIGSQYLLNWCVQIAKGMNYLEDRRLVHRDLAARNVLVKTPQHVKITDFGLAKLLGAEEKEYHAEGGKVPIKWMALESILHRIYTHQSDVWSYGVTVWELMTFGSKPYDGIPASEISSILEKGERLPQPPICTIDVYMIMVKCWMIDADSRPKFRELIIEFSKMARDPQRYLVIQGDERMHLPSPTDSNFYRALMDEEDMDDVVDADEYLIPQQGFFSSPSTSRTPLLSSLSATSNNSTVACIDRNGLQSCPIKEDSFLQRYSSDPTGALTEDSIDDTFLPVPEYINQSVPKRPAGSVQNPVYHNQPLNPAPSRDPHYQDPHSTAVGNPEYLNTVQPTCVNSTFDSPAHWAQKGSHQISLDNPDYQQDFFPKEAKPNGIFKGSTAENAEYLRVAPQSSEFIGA
Description: as §5

[22] = molecular target: isolated FAK (Homo sapiens, UniProt Q05397); assay: titration against isolated FAK; type: biochemical; conditions: titration data
[23] = molecular target: MAPK2(h) (Homo sapiens, UniProt P28482); assay: isolated kinase activity, MAPK2; type: biochemical; conditions: compound @ 10 μM
MAPK2(h), sequence (P28482 whole entry): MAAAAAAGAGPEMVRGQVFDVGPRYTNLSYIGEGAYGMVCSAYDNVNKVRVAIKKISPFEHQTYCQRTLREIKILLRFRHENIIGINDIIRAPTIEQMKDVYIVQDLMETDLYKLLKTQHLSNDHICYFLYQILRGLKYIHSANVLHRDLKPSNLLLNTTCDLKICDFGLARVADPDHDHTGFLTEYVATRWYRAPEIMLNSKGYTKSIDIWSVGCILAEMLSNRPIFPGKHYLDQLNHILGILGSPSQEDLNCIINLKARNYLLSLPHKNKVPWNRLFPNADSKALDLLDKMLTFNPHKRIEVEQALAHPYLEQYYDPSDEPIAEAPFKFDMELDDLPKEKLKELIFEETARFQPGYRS
Description: as §5

[24] = test system: FAK Tyr 925; assay: intracellular phosphorylation, FAK Tyr 925; type: cell-based; conditions: whole cells
Description: as §1, §2
KX2-391 and AZ28 inhibited Src transphosphorylation.

[25] = molecular target: CHK1(h) (Homo sapiens, UniProt O14757); assay: isolated kinase activity, CHK1; type: biochemical; conditions: compound @ 10 μM
CHK1(h), sequence (O14757 whole entry): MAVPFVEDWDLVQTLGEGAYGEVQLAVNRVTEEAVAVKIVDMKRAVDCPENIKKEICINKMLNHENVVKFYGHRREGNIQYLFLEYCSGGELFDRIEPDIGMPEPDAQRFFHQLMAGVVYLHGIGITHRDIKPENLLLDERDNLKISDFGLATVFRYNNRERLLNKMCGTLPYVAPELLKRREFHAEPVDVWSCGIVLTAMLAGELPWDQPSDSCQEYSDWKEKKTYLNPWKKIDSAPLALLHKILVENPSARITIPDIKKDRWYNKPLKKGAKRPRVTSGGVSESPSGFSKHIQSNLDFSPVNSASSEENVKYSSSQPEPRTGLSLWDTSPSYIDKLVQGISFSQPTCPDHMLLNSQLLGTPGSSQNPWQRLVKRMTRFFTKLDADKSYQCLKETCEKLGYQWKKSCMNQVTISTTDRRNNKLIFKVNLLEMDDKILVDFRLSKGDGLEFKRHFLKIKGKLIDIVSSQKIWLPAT
Description: as §5

[26] = test system: total phosphotyrosine levels; assay: total phosphotyrosine levels; type: cell-based; conditions: HT29 and c-Src527F/NIH-3T3 cells
Description: as §1, §2

[27] = molecular target: Lck(h) (Homo sapiens, UniProt P06239); assay: isolated kinase activity, Lck; type: biochemical; conditions: compound @ 10 μM
Lck(h), sequence (P06239 whole entry): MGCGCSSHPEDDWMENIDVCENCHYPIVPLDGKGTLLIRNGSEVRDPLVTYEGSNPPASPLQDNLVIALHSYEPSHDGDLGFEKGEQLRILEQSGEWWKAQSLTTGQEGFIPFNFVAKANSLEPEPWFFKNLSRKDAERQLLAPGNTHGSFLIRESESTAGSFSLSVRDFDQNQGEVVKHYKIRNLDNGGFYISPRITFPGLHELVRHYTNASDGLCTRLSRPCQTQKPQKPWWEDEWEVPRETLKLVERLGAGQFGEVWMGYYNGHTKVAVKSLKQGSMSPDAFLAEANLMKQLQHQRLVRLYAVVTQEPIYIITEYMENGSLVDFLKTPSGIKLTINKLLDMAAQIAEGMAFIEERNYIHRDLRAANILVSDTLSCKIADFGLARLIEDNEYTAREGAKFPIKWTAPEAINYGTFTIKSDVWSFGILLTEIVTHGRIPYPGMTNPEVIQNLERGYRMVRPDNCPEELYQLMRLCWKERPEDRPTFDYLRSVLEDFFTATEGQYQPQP
Description: as §5

[28] = molecular target: Lyn(h) (Homo sapiens, UniProt P07948); assay: isolated kinase activity, Lyn; type: biochemical; conditions: compound @ 10 μM
Lyn(h), sequence (P07948 whole entry): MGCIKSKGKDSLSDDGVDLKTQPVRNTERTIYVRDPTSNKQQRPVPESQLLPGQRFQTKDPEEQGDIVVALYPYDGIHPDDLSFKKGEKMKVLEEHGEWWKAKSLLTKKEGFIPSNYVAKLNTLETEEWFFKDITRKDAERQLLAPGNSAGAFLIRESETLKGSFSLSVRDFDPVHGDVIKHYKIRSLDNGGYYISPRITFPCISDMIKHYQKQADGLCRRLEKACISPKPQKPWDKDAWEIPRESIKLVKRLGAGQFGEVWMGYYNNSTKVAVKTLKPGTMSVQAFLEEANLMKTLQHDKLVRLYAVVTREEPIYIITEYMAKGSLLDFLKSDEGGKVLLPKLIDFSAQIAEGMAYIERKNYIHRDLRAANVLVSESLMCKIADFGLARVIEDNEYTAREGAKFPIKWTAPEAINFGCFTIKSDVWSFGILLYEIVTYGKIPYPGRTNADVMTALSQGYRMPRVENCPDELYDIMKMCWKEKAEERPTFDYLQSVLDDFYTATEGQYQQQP
Description: as §5

[29] = molecular target: Abl(h) (Homo sapiens, UniProt P00519); assay: isolated kinase activity, Abl; type: biochemical; conditions: compound @ 10 μM
Abl(h), sequence (P00519 whole entry): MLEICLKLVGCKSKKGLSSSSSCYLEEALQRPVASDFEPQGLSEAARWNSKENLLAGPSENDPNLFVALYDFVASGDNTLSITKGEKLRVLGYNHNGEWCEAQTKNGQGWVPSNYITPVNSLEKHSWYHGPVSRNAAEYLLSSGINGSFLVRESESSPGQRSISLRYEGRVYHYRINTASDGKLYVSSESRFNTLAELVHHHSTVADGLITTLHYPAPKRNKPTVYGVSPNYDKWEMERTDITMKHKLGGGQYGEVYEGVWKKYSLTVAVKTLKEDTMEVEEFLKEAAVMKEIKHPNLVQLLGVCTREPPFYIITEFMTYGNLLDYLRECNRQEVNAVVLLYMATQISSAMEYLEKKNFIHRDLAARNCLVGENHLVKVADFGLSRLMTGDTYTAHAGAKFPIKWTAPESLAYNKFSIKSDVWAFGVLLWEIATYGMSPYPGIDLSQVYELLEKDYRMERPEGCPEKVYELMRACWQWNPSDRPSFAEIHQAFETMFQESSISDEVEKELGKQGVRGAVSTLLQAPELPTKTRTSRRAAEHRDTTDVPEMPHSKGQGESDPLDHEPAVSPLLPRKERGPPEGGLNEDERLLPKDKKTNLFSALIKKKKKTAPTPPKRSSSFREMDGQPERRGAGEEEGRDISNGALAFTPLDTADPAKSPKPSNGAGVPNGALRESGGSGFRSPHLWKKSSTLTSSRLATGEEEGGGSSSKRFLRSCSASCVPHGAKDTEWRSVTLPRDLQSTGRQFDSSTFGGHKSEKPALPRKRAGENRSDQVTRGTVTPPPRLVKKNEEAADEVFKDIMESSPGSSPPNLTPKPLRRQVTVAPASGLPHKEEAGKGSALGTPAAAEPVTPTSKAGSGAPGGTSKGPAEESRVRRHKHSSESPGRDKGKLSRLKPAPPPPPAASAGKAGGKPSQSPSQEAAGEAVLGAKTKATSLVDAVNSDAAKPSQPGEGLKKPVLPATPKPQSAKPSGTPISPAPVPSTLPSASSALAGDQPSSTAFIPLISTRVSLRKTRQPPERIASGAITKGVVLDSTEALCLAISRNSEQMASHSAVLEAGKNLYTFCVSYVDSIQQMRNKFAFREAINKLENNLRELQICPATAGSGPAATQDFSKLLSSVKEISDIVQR
Description: as §5

O=C(Cc1ccc(-c2ccc(OCCN3CCOCC3)cc2)cn1)NCc1ccccc1 [KXO1]
IC50 [1]: 14.5 nM
IC50 [2]: 33.1 nM
IC50 [3]: 1.7 nM
Src-Y416 autophosphorylation [4]: potent inhibitor
EGFR tyrosine kinase autophosphorylation [5]: not inhibited
EGFR tyrosine kinase autophosphorylation ([5]; listed as KX-391): less active
GI50 [6]: 13 nM
phosphorylation of Bcr/Abl &245 [7]: inhibited less potently
GI50 [8]: 12 nM
IC50 [9]: 5.8 nM
LN metastasis ([10]; 5.0 mg/kg/day oral gavage): 4/5
Tumor incidence ([10]; 5.0 mg/kg/day oral gavage): 5/6
Tumor weight (g) Median ([10]; 5.0 mg/kg/day oral gavage): 1.16 g
LN metastasis ([10]; 10.0 mg/kg/day oral gavage): 2/5
Tumor incidence ([10]; 10.0 mg/kg/day oral gavage): 5/6
Tumor weight (g) Median ([10]; 10.0 mg/kg/day oral gavage): 0.35 g
IC50 [11]: 98 nM
IC80 [11]: 277 nM
IC90 [11]: 490 nM
GI50 [12]: 45 nM
IC50 [13]: 76.1 nM
GI50 [14]: 80 nM
phosphorylation of Lck Y405 [15]: not inhibited
phosphorylation of ZAP70 Y319 [16]: not inhibited
GI50 [17]: 35 nM
GI50 [18]: 10 nM
GI50 [19]: 378 nM

O=C(Cc1ccc(-c2ccc(OCCN3CCOCC3)cc2)cn1)NCc1ccccc1 [KX2-391]
percent activity of isolated kinase relative to control [20]: 85%
percent activity of isolated kinase relative to control [21]: 134%
IC50 [22]: > 48000 nM
percent activity of isolated kinase relative to control [23]: 112%
phosphorylation of FAK Tyr 925 (Src transphosphorylation) [24]: inhibited
percent activity of isolated kinase relative to control [25]: 105%
total phosphotyrosine levels [26]: reduction in the total phosphotyrosine levels
percent activity of isolated kinase relative to control [27]: 109%
percent activity of isolated kinase relative to control [28]: 113%
percent activity of isolated kinase relative to control [29]: 120%
